Converted amounts (≈) assume the structure as drawn.
What was measured:
[1] = Inhibition of PKC
[2] = Inhibition of thymocyte protein tyrosine kinase
[3] = Inhibition of FGFR
[4] = Inhibition of PI3K
[5] = target: Epidermal growth factor receptor (Homo sapiens, UniProt P00533); assay: Inhibition of EGFR
[6] = target: Proto-oncogene tyrosine-protein kinase Src (Homo sapiens, UniProt P12931); assay: Inhibition of c-Src
[7] = target: Cyclin-dependent kinase 6 (Homo sapiens, UniProt Q00534); assay: Inhibition of CDK6
Cyclin-dependent kinase 6, sequence (Q00534 whole entry): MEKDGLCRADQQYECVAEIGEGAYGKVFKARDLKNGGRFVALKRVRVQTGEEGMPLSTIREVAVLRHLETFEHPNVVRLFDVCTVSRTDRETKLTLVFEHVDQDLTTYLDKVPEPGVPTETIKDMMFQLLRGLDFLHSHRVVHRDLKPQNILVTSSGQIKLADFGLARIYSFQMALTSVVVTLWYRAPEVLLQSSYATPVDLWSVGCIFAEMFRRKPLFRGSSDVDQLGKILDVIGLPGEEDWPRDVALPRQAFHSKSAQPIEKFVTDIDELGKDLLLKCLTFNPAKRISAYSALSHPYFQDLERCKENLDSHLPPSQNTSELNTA

[8] = Inhibition of CK2
[9] = target: Myosin light chain kinase, smooth muscle (Homo sapiens, UniProt Q15746); assay: Inhibition of MLCK
Myosin light chain kinase, smooth muscle, sequence (Q15746 whole entry): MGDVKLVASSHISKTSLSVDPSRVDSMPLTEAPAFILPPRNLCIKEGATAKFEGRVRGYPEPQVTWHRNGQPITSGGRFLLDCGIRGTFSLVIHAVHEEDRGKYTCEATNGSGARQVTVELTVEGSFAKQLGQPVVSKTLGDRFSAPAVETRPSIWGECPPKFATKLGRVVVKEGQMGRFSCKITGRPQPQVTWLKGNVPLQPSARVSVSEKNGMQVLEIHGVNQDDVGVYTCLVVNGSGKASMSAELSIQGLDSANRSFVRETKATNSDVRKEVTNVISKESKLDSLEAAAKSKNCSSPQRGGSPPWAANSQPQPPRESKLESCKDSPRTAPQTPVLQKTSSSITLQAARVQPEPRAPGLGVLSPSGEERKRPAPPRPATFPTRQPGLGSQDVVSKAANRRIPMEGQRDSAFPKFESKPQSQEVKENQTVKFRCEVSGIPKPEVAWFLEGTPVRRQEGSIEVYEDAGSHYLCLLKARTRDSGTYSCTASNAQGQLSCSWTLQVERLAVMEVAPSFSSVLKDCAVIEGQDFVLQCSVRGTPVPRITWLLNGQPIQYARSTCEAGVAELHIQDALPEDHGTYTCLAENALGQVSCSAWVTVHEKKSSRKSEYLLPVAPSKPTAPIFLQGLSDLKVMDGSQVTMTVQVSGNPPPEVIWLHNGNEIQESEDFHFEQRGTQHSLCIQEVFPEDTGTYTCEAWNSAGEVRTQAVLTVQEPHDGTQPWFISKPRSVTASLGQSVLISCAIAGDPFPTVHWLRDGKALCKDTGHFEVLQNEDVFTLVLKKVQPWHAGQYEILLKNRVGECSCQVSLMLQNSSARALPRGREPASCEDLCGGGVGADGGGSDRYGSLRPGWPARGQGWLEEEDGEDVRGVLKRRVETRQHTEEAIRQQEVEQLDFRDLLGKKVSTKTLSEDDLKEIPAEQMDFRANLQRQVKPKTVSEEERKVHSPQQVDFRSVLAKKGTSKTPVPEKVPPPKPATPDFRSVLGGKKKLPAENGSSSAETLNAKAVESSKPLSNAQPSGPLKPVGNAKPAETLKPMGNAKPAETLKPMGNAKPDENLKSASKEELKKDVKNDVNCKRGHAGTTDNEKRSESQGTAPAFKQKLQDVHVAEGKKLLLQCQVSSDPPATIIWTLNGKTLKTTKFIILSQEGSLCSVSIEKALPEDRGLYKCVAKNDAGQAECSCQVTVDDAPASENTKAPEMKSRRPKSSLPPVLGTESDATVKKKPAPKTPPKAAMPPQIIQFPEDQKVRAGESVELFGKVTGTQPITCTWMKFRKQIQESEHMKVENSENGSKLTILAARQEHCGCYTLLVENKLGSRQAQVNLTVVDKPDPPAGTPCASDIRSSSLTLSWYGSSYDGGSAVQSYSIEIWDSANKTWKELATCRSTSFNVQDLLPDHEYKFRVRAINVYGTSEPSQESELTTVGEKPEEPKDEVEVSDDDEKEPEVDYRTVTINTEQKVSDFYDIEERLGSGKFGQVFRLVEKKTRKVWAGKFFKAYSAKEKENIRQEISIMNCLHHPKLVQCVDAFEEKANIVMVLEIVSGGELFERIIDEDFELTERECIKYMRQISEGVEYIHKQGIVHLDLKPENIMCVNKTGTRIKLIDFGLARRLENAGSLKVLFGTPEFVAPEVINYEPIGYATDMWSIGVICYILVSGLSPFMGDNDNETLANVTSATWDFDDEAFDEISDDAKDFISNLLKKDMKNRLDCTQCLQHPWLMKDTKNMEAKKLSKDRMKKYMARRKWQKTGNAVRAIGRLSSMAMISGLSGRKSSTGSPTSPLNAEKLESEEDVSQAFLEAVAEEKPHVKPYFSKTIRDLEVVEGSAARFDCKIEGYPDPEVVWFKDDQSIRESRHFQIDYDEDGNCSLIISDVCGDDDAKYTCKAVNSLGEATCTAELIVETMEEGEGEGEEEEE

[10] = Inhibition of CK1
[11] = Inhibition of PKA
[12] = Inhibition of CaM kinase
[13] = Inhibition of Rous sarcoma virus SRC
[14] = Inhibition of PKD

Epidermal growth factor receptor, sequence (P00533 whole entry): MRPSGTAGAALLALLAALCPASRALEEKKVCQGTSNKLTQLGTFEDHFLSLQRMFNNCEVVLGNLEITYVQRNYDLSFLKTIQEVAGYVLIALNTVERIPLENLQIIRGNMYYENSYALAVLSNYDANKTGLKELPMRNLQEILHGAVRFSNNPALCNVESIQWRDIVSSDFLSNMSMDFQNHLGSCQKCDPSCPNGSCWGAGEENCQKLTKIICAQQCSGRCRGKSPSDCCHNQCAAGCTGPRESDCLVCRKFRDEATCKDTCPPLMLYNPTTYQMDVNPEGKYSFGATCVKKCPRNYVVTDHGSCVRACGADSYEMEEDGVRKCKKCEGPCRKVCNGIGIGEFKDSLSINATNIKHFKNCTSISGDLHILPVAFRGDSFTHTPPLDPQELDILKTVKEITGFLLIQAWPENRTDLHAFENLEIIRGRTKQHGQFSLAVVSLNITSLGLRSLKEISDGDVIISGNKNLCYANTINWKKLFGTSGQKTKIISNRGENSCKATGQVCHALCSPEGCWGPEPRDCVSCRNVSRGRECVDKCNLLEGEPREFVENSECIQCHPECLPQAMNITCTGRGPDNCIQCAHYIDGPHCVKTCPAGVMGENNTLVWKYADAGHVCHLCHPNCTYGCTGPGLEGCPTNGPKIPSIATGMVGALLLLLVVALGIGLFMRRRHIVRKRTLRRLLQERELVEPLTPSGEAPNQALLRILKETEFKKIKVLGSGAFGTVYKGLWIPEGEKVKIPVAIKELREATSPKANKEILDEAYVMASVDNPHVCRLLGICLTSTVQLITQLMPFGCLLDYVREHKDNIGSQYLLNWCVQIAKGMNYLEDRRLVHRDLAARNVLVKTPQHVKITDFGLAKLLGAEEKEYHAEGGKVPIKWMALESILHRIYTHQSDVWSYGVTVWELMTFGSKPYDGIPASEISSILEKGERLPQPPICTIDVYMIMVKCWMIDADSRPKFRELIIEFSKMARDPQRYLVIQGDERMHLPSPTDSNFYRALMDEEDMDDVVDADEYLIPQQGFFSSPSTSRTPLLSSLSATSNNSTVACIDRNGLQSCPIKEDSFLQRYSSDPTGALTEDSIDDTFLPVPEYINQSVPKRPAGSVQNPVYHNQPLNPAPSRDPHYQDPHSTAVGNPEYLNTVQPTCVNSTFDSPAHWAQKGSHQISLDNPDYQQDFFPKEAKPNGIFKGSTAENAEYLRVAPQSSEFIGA
Proto-oncogene tyrosine-protein kinase Src, sequence (P12931 2-536 limits assumed): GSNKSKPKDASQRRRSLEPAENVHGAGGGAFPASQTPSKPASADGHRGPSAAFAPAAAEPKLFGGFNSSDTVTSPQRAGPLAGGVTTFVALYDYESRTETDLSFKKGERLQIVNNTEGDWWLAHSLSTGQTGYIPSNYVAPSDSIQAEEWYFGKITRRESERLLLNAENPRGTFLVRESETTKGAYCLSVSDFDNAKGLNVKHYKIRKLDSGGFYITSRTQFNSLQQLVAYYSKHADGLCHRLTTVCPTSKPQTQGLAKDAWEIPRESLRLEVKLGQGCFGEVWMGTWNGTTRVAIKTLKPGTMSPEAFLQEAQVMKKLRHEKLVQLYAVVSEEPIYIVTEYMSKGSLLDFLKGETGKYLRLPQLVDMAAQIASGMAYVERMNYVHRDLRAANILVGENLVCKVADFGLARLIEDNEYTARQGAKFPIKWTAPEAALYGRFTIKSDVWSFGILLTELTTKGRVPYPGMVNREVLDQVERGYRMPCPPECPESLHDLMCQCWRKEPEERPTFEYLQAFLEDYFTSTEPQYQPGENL

SMILES: O=c1cc(-c2ccc(O)cc2)oc2cc(O)cc(O)c12 [APIGENIN]
- IC50 [1]: 10 µM
- ID50 [2]: 90 µg/mL (≈ 333 µM)
- IC50 [3]: 20 µM
- IC50 [4]: 12 µM

SMILES: O=C(/C=C/c1ccc(O)c(O)c1)c1ccc(O)cc1O [BUTEIN]
- IC50 [5]: 8 µM
- IC50 [6]: 65 µM

SMILES: O=C1c2ccccc2-[n+]2ccc3c([nH]c4ccccc43)c21 [FASCAPLYSIN CHLORIDE]
- IC50 [7]: 3.4 µM

SMILES: O=c1c(O)c(-c2ccc(O)c(O)c2)oc2cc(O)ccc12 [FISETIN]
- IC50 [2]: 35 µM
- IC50 [8]: 0.35 µM
- IC50 [4]: 10 µM

SMILES: O=c1cc(-c2ccc(O)c(O)c2)oc2cc(O)cc(O)c12 [LUTEOLIN]
- IC50 [4]: 8 µM

SMILES: O=c1c(O)c(-c2cc(O)c(O)c(O)c2)oc2cc(O)cc(O)c12 [MYRICETIN]
- Ki [1]: 12.1 µM
- IC50 [8]: 0.92 µM
- Ki [8]: 0.6 µM
- IC50 [4]: 1.8 µM
- Kd [4]: 0.17 µM
- Ki [9]: 1.7 µM
- Ki [10]: 9 µM
- Ki [11]: 27.5 µM

SMILES: Oc1cc(O)cc(/C=C/c2ccc(O)c(O)c2)c1 [PICEATANNOL]
- IC50 [1]: 8 µM
- Ki [2]: 15 µM
- IC50 [9]: 12 µM
- IC50 [11]: 3 µM
- IC50 [12]: 19 µM

SMILES: O=c1c(O)c(-c2ccc(O)c(O)c2)oc2cc(O)cc(O)c12 [QUERCETIN]
- ID50 [2]: 11 µg/mL (≈ 36.4 µM)
- IC50 [4]: 3.8 µM
- Kd [4]: 0.28 µM
- Ki [13]: 6 µM

SMILES: Oc1ccc(/C=C/c2cc(O)cc(O)c2)cc1 [RESVERATROL]
- IC50 [1]: 90 µM
- Ki [1]: 55 µM
- IC50 [8]: 10 µM
- Ki [8]: 1.2 µM
- IC50 [14]: 200 µM

SMILES: COc1c(O)cc2occ(-c3ccc(O)cc3)c(=O)c2c1O [TECTORIGENIN]
- IC50 [5]: 3.3 µM

From ChEMBL document CHEMBL1157216, “A common protein fold topology shared by flavonoid biosynthetic enzymes and therapeutic targets” (J Nat Prod, 2006)
